Earlier results as cited in patent US20080152704A1, “Dosage Forms of Palonosetron Hydrochloride Having Improved Stability and Bioavailability” (priority 2006, published 2008).

Key:
5-HT3 receptor = molecular target: T1, 5-HT3 receptor (Homo sapiens, UniProt P46098)
T1 sequence (P46098 24-478): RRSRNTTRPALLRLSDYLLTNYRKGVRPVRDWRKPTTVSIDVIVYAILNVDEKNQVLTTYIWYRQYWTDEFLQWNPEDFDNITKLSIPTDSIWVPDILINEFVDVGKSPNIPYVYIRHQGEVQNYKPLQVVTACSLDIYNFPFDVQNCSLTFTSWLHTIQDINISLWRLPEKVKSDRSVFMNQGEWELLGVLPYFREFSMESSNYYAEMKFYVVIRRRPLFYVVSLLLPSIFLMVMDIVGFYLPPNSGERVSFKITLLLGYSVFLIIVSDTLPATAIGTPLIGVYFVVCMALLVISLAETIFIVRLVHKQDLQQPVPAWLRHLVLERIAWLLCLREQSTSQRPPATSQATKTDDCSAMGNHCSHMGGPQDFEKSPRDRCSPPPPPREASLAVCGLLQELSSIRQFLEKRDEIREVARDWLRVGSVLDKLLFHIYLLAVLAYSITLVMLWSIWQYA

affinity for other receptors such as dopamine receptors (dopamine receptors): low affinity | affinity as an antagonist for the 5-HT3 receptor (5-HT3 receptor): high affinity
Structure (SMILES): Cl.O=C1c2cccc3c2[C@H](CCC3)CN1[C@@H]1CN2CCC1CC2 [Palonosetron, (3aS)-2-[(S)-1-Azabicyclo [2.2.2]oct-3-yl]-2,3,3a,4,5,6-hexahydro-1-oxo-1Hbenz[de] isoquinoline hydrochloride]
